Marks after values point to notes of the source that are not given here. Where no end group is shown, it is not given here.
How the values were obtained:
[1] = tested on: retinal neovascular clusters in OIR C57/B16 mice; assay: Retinal blood vessels in OIR mice; format: in vivo, mouse; settings: for Neovascular clusters area: retina evaluated on day 17; for Inhibition rate: neovascular clusters area vs control, day 17; for inhibition rate of retinal neovascular clusters: OIR mice, 50 μg intravitreal injection, evaluated day 17
Description: Establishment of the OIR model: Exposure of young mouse and their mothers to 75% hyperoxic environment from day 7 to day 12 after birth of C57/B16 mice caused rapid disappearance of capillaries in the central retina. Upon returning to the indoor air on the 12th day, the retinal blood vessels, upon exposing to hyperoxia, rapidly disappeared, causing extensive abnormal neovascularization, and the central portion of the retina remained largely avascular for a long time. After the blood vessels disappeared completely, on the 13th day, physiological saline (negative control group), mPEG-SC-HM-1, mPEG2-NHS-HM-1, mPEG-ALD10k-HM-1, and mPEG-bALD-HM-1, were administered by intravitreal injection and retinal vessels were evaluated on day 17 (to label unclosed vessels, […] of Texas Red-labeled tomato lectin was injected into the left ventricle and circulated for 5 min).

[2] = tested on: Uterine cancer tumor cells; assay: MTT proliferation inhibition, uterine cancer cells; format: cell-based, human; parameters: concentration or dose not given beside the values; settings: 48 h
In short: (§1)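 Tumour cells plated at 2×10^4 cells/mL, attached overnight, then exposed to dilutions of mPEG-HM-1 for 48 h at 37 °C, 5% CO2. MTT added 4 h, formazan dissolved in DMSO, absorbance 570/630 nm; growth inhibition = 1 − treated/untreated, three independent repeats, mean±SD.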

[3] = tested on: Gastric cancer tumor cells; assay: MTT proliferation inhibition, gastric cancer cells; format: cell-based, human; parameters: concentration or dose not given beside the values; settings: 48 h
In short: as §1

[4] = tested on: Liver cancer tumor cells; assay: MTT proliferation inhibition, liver cancer cells; format: cell-based, human; parameters: concentration or dose not given beside the values; settings: 48 h
In short: as §1

[5] = tested on: human retinal vascular endothelial cells (HRCEC); assay: MTT proliferation of human retinal vascular endothelial cells; format: cell-based; settings: 48 h; for Inhibition rate: HRCEC proliferation; for A570 nm-A630 nm: HRCEC; for A570 nm-A630 nm / inhibition rate of HRCEC proliferation: MTT
In short: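 HRCEC seeded at 3.0×10^4 cells/mL, adhered overnight, then exposed to polypeptide dilutions for 48 h at 37° C, 5% CO2; medium-only blank control. MTT added for 4 h, formazan dissolved in DMSO. PI (%)=1−administration group/negative group; three independent repeats, mean±SD, t test.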

[6] = in vivo
[7] = tested on: choroidal neovascularization in BN rats; assay: Laser-induced choroidal neovascularization in BN rats (FFA); format: in vivo, rat; settings: for incidence of CNV: BN rats, 28 days after administration, intravitreal once daily for 1 week
Method: 6-8 weeks old male BN rats were anesthetized with 846 compound anesthetic 0.5 mL/kg administered intraperitoneally. The eye drops of compound tropamide eyes were used 5 minutes before laser photocoagulation, and the pupils of both eyes were fully scattered. Fix animals, with the aid of −53.00 D contact lens, around the optic disc and along the same distance from the optic disc 2PD, the laser beam photocoagulation were performed to make a total of 8 photo-condensation spots, with laser wavelength of 647.1 nm, power of 350 mW, photocoagulation spot diameter and time were 50 μm and 0.05 s, respectively. Immediately after photocoagulation, fundus photography was performed. FFA, histopathology and transmission electron microscopy were performed at 3, 7, 14, 21, and 28 days after photocoagulation.
It was confirmed by fundus photography and FFA examination that the fluorescein leakage of photocoagulation peaked on the 21st day after photocoagulation, and histopathological examination was performed at the same time. […] A large number of neovascular vessels were seen, and red blood cells were visible in the lumen. Microscopically, capillary cells in the choroidal melanocytes were cohesively altered and endothelial cells aggregated.
Rats that were successfully modeled were randomly divided into groups of 5 rats each. They were labeled as negative control group, mPEG-SC-HM-1 treatment group, mPEG2-NHS-HM-1 treatment group, mPEG-ALD-HM-1 treatment group and mPEG-bALD-HM-1 treatment group, respectively. Saline, mPEG-HM-1 (see Table 53 for dosing) was administered intravitreally, once daily for 1 week. FFA examinations were performed 3 days, 7 days, 14 days, and 28 days after administration of the modified peptides.

[8] = 50 μg intravitreal injection on day 13
[9] = Day 3 after administration, 50 μg intravitreally once daily for 1 week (Table 53)
[10] = Day 3 after administration, 50 μg intravitreally once daily for 1 week (Table 53), total spots 290-296 by table
[11] = Day 7, 50 μg intravitreally once daily for 1 week (Table 53)
[12] = Day 7, 50 μg intravitreally once daily for 1 week (Table 53), total spots 182-188 by table
[13] = Day 14, 50 μg intravitreally once daily for 1 week (Table 53)
[14] = Day 14, 50 μg intravitreally once daily for 1 week (Table 53), total spots 132-138 by table
[15] = Day 28, 50 μg intravitreally once daily for 1 week (Table 53)
[16] = Day 28, 50 μg intravitreally once daily for 1 week (Table 53), total spots 67-71 by table

Substance	Neovascular clusters area [1, 8] [mm^2]	Inhibition rate ([1]; 50 μg intravitreal) [%**]	inhibition rate of retinal neovascular clusters [1] [%]	rate of growth inhibition [2] [%]	rate of growth inhibition [3] [%]	rate of growth inhibition [4] [%]	Inhibition rate ([5]; 40 μg/mL) [%*]	A570 nm-A630 nm ([5]; 40 μg/mL)	Inhibition rate ([5]; 60 μg/mL)	A570 nm-A630 nm ([5]; 60 μg/mL)	inhibition rate of HRCEC proliferation ([5]; 80 μg/mL) [%]	Inhibition rate ([5]; 80 μg/mL)	A570 nm-A630 nm ([5]; 80 μg/mL)	AUC0-∞ [6] [mg/L/h]	CL [6] [L/h/kg]	MRT0-∞ [6] [h]	T1/2β (half-life) [6] [h]	CNV Incidence rate [7, 9] [%]	leakage Spots # [7, 10]	CNV Incidence rate [7, 11] [%]	also measured
mPEG-bALD10k-Arg-Gly-Ala-Asp-Arg-Ala-Gly-Gly-Gly-Gly-Arg-Gly-Asp ({mPEG‑bALD 10 kDa}-RGADRAGGGGRGD) [mPEG-bALD10k-HM-1]	0.083 ± 0.006	62.35	62.35	79.79 ± 20.45	75.01 ± 16.20	68.59 ± 20.19	47.95	0.6931 ± 0.07754	57.43%**	0.5669 ± 0.07609	75.19	75.19%*	0.3304 ± 0.07354	5108.42 ± 9.98	0.0250 ± 0.0105	11.97 ± 8.86	16.83 ± 0.13	48.46	142	46.49	leakage Spots # [7, 12]: 86; CNV Incidence rate [7, 13]: 42.03%; leakage Spots # [7, 14]: 58; CNV Incidence rate [7, 15]: 39.13%; leakage Spots # [7, 16]: 27
mPEG-SC20k-Arg-Gly-Ala-Asp-Arg-Ala-Gly-Gly-Gly-Gly-Arg-Gly-Asp ({mPEG‑SC 20 kDa}-RGADRAGGGGRGD) [mPEG-SC20k-HM-1]	–	–	–	76.93 ± 23.14	66.14 ± 20.08	61.09 ± 14.09	–	–	45.71%*	0.7116 ± 0.07539	–	53.92%**	0.6040 ± 0.06996	4310.23 ± 12.98	0.0135 ± 0.0093	17.64 ± 12.67	21.46 ± 0.24	–	–	–	Neovascular clusters area ([1]; 100 μg intravitreal injection on day 13): 0.110 ± 0.010 mm^2; Inhibition rate ([1]; 100 μg intravitreal): 50.23%**; Inhibition rate ([5]; 100 μg/mL): 66.64%*; A570 nm-A630 nm ([5]; 100 μg/mL): 0.4372 ± 0.0721; CNV Incidence rate ([7]; Day 3 after administration, 100 μg intravitreally once daily for 1 week (Table 53)): 51.35%; leakage Spots # ([7]; Day 3 after administration, 100 μg intravitreally once daily for 1 week (Table 53), total spots 290-296 by table): 152; CNV Incidence rate ([7]; Day 7, 100 μg intravitreally once daily for 1 week (Table 53)): 48.94%; leakage Spots # ([7]; Day 7, 100 μg intravitreally once daily for 1 week (Table 53), total spots 182-188 by table): 92; CNV Incidence rate ([7]; Day 14, 100 μg intravitreally once daily for 1 week (Table 53)): 45.93%; leakage Spots # ([7]; Day 14, 100 μg intravitreally once daily for 1 week (Table 53), total spots 132-138 by table): 62; CNV Incidence rate ([7]; Day 28, 100 μg intravitreally once daily for 1 week (Table 53)): 41.79%; leakage Spots # ([7]; Day 28, 100 μg intravitreally once daily for 1 week (Table 53), total spots 67-71 by table): 28
mPEG2-NHS10k-Arg-Gly-Ala-Asp-Arg-Ala-Gly-Gly-Gly-Gly-Arg-Gly-Asp ({mPEG2‑NHS 10 kDa}-RGADRAGGGGRGD) [mPEG2-NHS10k-HM-1]	0.100 ± 0.006	54.63	54.63	60.49 ± 18.05	55.67 ± 13.53	54.19 ± 12.80	45.83	0.7160 ± 0.07829	54.72%**	0.5985 ± 0.07472	65.13	65.13%*	0.4609 ± 0.07165	4858.62 ± 10.62	0.0259 ± 0.0062	13.08 ± 3.66	15.27 ± 0.11	50.34	148	48.35	incidence of CNV [7]: 39.71%; leakage Spots # [7, 12]: 88; CNV Incidence rate [7, 13]: 43.07%; leakage Spots # [7, 14]: 59; CNV Incidence rate [7, 15]: 39.71%; leakage Spots # [7, 16]: 27
mPEG-ALD40k-Arg-Gly-Ala-Asp-Arg-Ala-Gly-Gly-Gly-Gly-Arg-Gly-Asp ({mPEG‑ALD 40 kDa}-RGADRAGGGGRGD) [mPEG-ALD40k-HM-1]	–	–	–	82.59 ± 21.37	70.66 ± 18.72	60.78 ± 10.88	–	–	–	–	–	43.11%*	0.7457 ± 0.07094	5276.69 ± 9.84	0.0065 ± 0.0058	16.52 ± 3.06	43.31 ± 0.22	–	–	–	Neovascular clusters area ([1]; 200 μg intravitreal injection on day 13): 0.106 ± 0.010 mm^2; Inhibition rate ([1]; 200 μg intravitreal): 52.02%**; Inhibition rate ([5]; 100 μg/mL): 54.23%**; A570 nm-A630 nm ([5]; 100 μg/mL): 0.5999 ± 0.07138; Inhibition rate ([5]; 120 μg/mL): 62.08%*; A570 nm-A630 nm ([5]; 120 μg/mL): 0.4970 ± 0.07653; CNV Incidence rate ([7]; Day 3 after administration, 200 μg intravitreally once daily for 1 week (Table 53)): 52.41%; leakage Spots # ([7]; Day 3 after administration, 200 μg intravitreally once daily for 1 week (Table 53), total spots 290-296 by table): 152; CNV Incidence rate ([7]; Day 7, 200 μg intravitreally once daily for 1 week (Table 53)): 50.55%; leakage Spots # ([7]; Day 7, 200 μg intravitreally once daily for 1 week (Table 53), total spots 182-188 by table): 92; CNV Incidence rate ([7]; Day 14, 200 μg intravitreally once daily for 1 week (Table 53)): 46.97%; leakage Spots # ([7]; Day 14, 200 μg intravitreally once daily for 1 week (Table 53), total spots 132-138 by table): 62; CNV Incidence rate ([7]; Day 28, 200 μg intravitreally once daily for 1 week (Table 53)): 42.25%; leakage Spots # ([7]; Day 28, 200 μg intravitreally once daily for 1 week (Table 53), total spots 67-71 by table): 30
mPEG-SC10k-Arg-Gly-Ala-Asp-Arg-Ala-Gly-Gly-Gly-Gly-Arg-Gly-Asp ({mPEG‑SC 10 kDa}-RGADRAGGGGRGD) [mPEG-SC10k-HM-1]	0.096 ± 0.008	56.56	56.56	65.29 ± 19.06	56.22 ± 16.19	57.18 ± 12.35	46.44	0.7020 ± 0.07964	55.39%**	0.5847 ± 0.07356	68.84	68.84%*	0.4084 ± 0.07298	4671.86 ± 10.76	0.0273 ± 0.0056	12.67 ± 5.84	15.18 ± 0.11	49.66	147	45.74	incidence of CNV [7]: 38.81%; leakage Spots # [7, 12]: 86; CNV Incidence rate [7, 13]: 42.96%; leakage Spots # [7, 14]: 58; CNV Incidence rate [7, 15]: 38.81%; leakage Spots # [7, 16]: 26

Source: US10869931B2, “Polyethylene glycol-modified angiogenesis inhibitor HM-1 and application thereof” (NANJING ANJI BIOLOGICAL TECHNOLOGY CO.,LTD, priority 2016, dated 2020)
